Test results: ChEMBL document CHEMBL1201862, “PubChem BioAssay data set” (2004)
Active and inactive are the calls of the source.

Experiments:
cells [1] = format: functional, cell-based
[2] = molecular target: T1, Nuclear receptor subfamily 0 group B member 1 (Homo sapiens, UniProt P51843); format: functional, cell-based;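 also: HEK293T cells transfected with SF-1 and DAX-1 plus StAR promoter luciferase reporter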
T1 sequence (P51843 whole entry): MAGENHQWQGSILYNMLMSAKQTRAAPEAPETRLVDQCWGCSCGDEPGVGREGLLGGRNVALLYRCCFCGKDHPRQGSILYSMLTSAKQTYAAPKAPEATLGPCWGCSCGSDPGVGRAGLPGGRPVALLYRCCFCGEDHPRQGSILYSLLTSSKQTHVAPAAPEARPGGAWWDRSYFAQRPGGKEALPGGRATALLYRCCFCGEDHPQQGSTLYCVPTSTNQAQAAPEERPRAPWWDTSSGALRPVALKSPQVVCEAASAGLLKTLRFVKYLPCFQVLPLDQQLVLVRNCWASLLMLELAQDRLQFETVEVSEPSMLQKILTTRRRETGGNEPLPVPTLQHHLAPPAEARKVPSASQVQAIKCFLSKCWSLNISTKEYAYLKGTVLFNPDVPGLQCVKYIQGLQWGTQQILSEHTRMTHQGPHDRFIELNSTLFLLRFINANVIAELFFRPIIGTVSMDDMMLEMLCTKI

Vero = assay: viability loss in Vero cells – cell-based, plate reader, cherry-pick samples, cytotoxicity control, dose response (AID 687020); format: functional; details: Chlorocebus sabaeus
[3] = molecular target: T2, Trace amine-associated receptor 1 (Homo sapiens, UniProt Q96RJ0); assay: Fluorescence-based cell-based high throughput dose response assay to identify agonists of the human trace amine associated receptor 1 (TAAR1).; format: functional
T2 sequence (Q96RJ0 whole entry): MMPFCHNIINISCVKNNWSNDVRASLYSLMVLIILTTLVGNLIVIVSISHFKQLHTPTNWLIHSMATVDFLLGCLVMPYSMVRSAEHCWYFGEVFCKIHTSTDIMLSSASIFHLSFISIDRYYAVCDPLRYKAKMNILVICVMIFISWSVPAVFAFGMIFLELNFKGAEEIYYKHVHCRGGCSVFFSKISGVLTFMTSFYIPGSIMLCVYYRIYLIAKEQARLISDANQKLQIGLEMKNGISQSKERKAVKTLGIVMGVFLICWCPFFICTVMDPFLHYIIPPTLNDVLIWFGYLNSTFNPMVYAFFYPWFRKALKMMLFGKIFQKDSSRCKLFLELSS

[4] = molecular target: T2, Trace amine-associated receptor 1; assay: Counterscreen for agonists of the human trace amine associated receptor 1 (hTAAR1): Fluorescence-based cell-based high throughput dose response assay to identify hTAAR1 agonist that also desensitize TAAR1 receptor response.; format: functional
cells [5] = format: functional, cell-based; remark: listed apart in the source
cells [6] = format: functional, cell-based; remark: listed apart in the source
H9c2 = assay: cells; format: functional, cell-based; details: Rattus norvegicus, H9c2, Myocardium
[7] = molecular target: Histone-lysine N-methyltransferase NSD2 (Homo sapiens, UniProt O96028); format: biochemical
[8] = Luminescence Cell-Based Dose Retest to Confirm Inhibitors of Cancer Stem Cells. [Related pubchem assays (depositor defined):AID2717, AID2721]; format: functional; details: Homo sapiens
[9] = molecular target: T3, Small ubiquitin-related modifier 1 (Homo sapiens, UniProt P63165); assay: SUMO1 protein interaction blockers, potency – biochemical, fluorescence polarization, uHTS hits, dose response (AID 624382); format: functional; details: read-out: IC50_Mean
[10] = molecular target: T3, Small ubiquitin-related modifier 1; assay: SUMO1 protein-protein binding blockers, potency – biochemical, FRET, dose response (AID 624383); format: functional; details: read-out: IC50_Mean
[11] = molecular target: T4, Heat shock factor protein 1 (Mus musculus, UniProt P38532); assay: enhancement of HSF1-driven luciferase signal – cell-based, NIH3T3, luminescence, dose retest, confirmation (AID 435004); format: functional;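 also: stress induced by proteasome inhibitor MG132 added 30 min after compound; luciferase reporter driven by HSF1 response element in NIH3T3 cells; actives raise luminescence as potentiators of the MG132 stress response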
T4 sequence (P38532 whole entry): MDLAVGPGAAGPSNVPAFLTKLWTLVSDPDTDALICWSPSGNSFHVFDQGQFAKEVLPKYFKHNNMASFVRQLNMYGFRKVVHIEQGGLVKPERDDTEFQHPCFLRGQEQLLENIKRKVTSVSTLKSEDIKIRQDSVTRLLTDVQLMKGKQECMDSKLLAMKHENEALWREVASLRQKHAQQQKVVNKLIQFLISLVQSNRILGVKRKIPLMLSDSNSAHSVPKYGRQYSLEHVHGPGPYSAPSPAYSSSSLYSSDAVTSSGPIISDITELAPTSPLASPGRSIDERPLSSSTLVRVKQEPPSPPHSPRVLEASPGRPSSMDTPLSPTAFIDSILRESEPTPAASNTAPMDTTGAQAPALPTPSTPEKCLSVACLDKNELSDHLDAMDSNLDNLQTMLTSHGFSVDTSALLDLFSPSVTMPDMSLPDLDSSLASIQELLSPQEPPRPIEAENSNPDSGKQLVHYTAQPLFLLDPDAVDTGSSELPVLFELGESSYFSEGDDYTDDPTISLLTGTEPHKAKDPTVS

[12] = molecular target: T5, Rac GTPase-activating protein 1 (Homo sapiens, UniProt Q9H0H5); assay: blockers of MgcRacGAP-driven Rac1 GTP hydrolysis – biochemical, ADP Hunter fluorescence, primary and confirmatory, confirmation (AID 624330); format: functional
T5 sequence (Q9H0H5 whole entry): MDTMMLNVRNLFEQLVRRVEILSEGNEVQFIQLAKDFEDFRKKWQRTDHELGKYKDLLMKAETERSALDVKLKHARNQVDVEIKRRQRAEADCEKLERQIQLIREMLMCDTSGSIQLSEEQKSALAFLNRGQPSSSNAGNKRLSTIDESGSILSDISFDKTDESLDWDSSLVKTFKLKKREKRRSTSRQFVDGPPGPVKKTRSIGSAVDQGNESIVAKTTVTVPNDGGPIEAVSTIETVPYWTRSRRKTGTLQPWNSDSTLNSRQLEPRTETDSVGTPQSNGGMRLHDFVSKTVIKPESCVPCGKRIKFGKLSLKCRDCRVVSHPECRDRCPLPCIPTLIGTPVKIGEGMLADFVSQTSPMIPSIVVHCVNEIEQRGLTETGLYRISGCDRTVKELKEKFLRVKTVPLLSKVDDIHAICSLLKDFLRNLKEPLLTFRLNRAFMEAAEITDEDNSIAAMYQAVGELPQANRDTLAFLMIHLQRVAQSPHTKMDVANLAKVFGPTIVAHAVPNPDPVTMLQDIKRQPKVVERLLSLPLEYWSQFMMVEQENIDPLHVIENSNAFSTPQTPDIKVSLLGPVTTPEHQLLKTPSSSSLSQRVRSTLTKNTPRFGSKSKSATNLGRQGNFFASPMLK

[13] = viability loss in HeLa cells – cytotoxicity control for MgcRacGAP inhibitor project, dose response (AID 624300); format: functional
Streptokinase A = molecular target: T6, Streptokinase A (Streptococcus pyogenes serotype M1, UniProt P10520); assay: viability-normalized secreted streptokinase activity reduction – plasminogen activation absorbance, OD405, dose response (AID 1914); format: functional, Streptococcus pyogenes M1 GAS;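 also: secreted streptokinase activity via plasminogen activation per viability signal from cell pellet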
T6 sequence (P10520 whole entry): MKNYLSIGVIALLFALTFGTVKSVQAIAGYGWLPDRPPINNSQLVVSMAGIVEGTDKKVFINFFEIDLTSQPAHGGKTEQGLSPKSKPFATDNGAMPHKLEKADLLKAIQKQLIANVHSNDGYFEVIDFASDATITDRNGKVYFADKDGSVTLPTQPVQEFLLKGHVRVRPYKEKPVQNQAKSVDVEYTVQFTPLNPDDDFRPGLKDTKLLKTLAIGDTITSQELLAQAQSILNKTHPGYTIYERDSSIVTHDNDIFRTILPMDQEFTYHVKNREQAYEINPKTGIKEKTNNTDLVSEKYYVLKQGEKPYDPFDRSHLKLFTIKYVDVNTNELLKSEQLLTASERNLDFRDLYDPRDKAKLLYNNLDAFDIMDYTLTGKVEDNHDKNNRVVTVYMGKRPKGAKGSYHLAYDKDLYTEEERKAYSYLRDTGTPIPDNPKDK

Streptococcus = assay: GAS UMAA2166 growth inhibition – luminescence, BacTiterGlo, counter-screen for streptokinase expression inhibitor project, dose response (AID 1915); format: functional, organism-based;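 also: potency for reduction of bacterial viability or growth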
[14] = Counterscreen for activators of the function of SWI/SNF related, matrix associated, actin dependent regulator of chromatin, subfamily a, member 2 (SMARCA2, BRM): Luminescence-based cell-based high throughput dose response assay to identify non-selective compounds using the VP16 reporter assay.; format: functional
[15] = molecular target: SWI/SNF-related matrix-associated actin-dependent regulator of chromatin subfamily A member 2 (Homo sapiens, UniProt P51531); assay: Luminescence-based cell-based high throughput dose response assay to identify activators of the function of SWI/SNF related, matrix associated, actin dependent regulator of chromatin, subfamily a, member 2 (SMARCA2, BRM).; format: functional
[16] = molecular target: T7, DNA repair protein RAD52 homolog (Homo sapiens, UniProt P43351); format: functional, biochemical
T7 sequence (P43351 whole entry): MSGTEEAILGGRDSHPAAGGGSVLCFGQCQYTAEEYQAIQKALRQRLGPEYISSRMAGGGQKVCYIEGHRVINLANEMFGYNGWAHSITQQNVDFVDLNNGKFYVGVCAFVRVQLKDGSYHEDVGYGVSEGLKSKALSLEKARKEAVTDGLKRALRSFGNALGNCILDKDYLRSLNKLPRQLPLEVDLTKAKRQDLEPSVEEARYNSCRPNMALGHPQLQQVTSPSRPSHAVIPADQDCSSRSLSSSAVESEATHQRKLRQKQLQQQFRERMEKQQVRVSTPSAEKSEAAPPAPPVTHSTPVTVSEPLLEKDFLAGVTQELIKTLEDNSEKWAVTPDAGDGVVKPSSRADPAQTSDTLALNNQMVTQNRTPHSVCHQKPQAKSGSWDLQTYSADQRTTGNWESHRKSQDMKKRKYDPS

[17] = molecular target: Potassium channel subfamily K member 9 (Homo sapiens, UniProt Q9NPC2); assay: KCNK9 flux blockade, concentration-response – cell-based, FluxOR thallium flux, selectivity assay for TASK1 inhibitor project, SAR follow-up (AID 652211); format: functional;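 also: potency is for inhibitors of the channel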
Potassium channel subfamily K member 9, sequence (Q9NPC2 whole entry): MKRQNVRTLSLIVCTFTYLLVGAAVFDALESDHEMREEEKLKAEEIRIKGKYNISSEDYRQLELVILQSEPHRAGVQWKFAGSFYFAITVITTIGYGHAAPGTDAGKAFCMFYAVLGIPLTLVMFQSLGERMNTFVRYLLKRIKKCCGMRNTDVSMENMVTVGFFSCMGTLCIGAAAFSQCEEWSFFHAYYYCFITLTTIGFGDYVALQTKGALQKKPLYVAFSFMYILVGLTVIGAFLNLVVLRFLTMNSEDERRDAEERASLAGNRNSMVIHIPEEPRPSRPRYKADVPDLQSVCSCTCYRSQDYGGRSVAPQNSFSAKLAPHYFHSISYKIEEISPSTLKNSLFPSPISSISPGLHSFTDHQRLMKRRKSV

T3 sequence (P63165 whole entry): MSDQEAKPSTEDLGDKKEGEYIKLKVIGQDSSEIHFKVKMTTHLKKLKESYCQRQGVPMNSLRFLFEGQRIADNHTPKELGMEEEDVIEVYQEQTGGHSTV
SWI/SNF-related matrix-associated actin-dependent regulator of chromatin subfamily A member 2, sequence (P51531 whole entry): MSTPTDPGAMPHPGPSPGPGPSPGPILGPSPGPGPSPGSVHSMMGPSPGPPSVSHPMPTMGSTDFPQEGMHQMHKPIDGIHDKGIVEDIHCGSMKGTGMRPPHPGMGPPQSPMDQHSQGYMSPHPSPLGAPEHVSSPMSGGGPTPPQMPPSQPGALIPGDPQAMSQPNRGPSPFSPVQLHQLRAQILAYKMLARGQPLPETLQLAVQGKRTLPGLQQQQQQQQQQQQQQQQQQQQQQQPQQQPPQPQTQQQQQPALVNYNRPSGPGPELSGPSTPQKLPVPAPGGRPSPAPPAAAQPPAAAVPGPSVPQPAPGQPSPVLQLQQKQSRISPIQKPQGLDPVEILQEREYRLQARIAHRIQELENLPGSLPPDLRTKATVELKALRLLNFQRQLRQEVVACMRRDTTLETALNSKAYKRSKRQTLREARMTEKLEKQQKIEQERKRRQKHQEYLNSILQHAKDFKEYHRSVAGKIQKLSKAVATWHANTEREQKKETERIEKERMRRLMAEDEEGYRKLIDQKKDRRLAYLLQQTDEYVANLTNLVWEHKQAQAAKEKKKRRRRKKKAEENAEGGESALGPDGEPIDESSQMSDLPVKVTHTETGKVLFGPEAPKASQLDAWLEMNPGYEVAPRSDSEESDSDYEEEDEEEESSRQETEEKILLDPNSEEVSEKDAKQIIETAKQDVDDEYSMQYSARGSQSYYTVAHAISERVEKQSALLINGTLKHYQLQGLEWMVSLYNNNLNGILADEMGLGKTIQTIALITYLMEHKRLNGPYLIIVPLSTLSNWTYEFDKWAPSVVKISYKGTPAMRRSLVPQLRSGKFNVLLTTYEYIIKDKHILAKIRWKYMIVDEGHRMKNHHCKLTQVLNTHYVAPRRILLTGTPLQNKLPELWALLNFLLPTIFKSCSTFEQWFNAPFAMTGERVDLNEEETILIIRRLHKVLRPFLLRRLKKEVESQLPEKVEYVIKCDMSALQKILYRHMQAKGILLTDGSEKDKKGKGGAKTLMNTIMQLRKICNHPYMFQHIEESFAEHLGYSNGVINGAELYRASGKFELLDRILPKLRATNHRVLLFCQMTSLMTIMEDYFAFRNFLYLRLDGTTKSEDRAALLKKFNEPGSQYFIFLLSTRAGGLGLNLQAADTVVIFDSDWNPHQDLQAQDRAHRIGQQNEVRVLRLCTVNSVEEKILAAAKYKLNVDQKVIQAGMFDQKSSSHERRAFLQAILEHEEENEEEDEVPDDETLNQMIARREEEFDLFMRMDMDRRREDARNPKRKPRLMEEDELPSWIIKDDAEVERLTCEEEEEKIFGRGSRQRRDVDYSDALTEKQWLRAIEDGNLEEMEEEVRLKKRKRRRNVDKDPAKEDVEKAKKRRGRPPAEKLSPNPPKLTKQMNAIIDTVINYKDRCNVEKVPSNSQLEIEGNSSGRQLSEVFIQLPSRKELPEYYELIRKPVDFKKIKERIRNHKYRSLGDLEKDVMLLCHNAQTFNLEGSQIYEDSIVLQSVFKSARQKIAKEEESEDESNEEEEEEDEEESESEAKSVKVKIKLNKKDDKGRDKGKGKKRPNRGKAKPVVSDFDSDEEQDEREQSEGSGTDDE
Histone-lysine N-methyltransferase NSD2, sequence (O96028 whole entry): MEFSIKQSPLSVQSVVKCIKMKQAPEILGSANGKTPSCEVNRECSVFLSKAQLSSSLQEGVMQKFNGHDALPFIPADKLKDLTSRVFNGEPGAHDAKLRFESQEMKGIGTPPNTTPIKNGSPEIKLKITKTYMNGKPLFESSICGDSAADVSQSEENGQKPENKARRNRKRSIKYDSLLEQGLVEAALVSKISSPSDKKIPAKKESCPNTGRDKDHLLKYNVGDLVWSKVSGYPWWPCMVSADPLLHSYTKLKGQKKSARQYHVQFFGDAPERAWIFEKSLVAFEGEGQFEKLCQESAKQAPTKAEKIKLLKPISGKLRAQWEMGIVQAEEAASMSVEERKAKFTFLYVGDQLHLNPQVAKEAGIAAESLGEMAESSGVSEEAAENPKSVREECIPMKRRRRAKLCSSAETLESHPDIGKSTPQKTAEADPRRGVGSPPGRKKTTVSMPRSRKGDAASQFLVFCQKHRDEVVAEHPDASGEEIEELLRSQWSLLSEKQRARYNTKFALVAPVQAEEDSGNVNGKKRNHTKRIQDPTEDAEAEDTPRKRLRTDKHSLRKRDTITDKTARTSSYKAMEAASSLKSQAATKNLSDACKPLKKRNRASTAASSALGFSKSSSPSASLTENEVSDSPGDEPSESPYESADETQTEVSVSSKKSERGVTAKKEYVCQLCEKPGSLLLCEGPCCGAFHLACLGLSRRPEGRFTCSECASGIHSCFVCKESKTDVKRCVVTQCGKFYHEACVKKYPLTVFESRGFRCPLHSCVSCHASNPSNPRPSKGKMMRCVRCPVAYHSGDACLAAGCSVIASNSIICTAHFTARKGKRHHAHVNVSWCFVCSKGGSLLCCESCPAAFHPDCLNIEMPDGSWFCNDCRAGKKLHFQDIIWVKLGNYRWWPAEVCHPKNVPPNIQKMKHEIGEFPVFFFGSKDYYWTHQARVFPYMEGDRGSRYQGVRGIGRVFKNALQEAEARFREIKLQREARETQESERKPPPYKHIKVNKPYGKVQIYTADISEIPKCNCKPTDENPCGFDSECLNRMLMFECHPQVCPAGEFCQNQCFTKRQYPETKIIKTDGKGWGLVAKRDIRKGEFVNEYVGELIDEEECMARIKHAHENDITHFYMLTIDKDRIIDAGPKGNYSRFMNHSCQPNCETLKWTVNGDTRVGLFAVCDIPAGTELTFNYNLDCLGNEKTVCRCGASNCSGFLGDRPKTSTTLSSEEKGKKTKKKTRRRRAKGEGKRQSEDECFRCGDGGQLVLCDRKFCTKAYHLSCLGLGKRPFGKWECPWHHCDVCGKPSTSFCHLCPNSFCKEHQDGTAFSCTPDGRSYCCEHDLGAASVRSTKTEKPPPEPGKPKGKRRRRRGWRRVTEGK

## Cc1cc(C)c2nc(NC(=O)c3ccco3)sc2c1
Cells [1]
  IC50: > 67.5 µM (inactive)
[2]
  IC50: > 0.278 µM (active)

## CCOc1ccccc1-c1nnc(CS(=O)(=O)c2ccccc2)o1
Vero
  AC50: 23.9 µM (active)

## COc1cccc(N2CN(CCc3ccccc3)CN=C2S)c1
[3]
  EC50: 0.758 µM (active)
[4]
  IC50: 3.52 µM (active)
Cells [5]
  IC50: > 29.9 µM (inactive)
Cells [6]
  EC50: > 29.9 µM (inactive)

## O=C(CN1CCN(S(=O)(=O)c2ccc(Br)cc2)CC1)c1ccc(O)c(O)c1
H9c2
  IC50: > 79 µM (inactive)
[7]
  AC50: 8.3 µM (active)

## O=C(O)c1cccc(S(=O)(=O)NNc2ccccc2C(F)(F)F)c1
[8]
  AC50: 10.8 µM (active)
[9]
  IC50: > 66.6 µM (inactive)
[10]
  IC50: 9.06 µM (active)

## c1ccc2c3c([nH]c2c1)CCNC3
[3]
  EC50: 0.412 µM (active)
[11]
  EC50: > 260 µM (inactive)
[4]
  IC50: 1.77 µM (active)
Cells [5]
  IC50: > 29.9 µM (inactive)
Cells [6]
  EC50: > 29.9 µM (inactive)

## CN(C(=O)C1CCC(=O)N(Cc2cccc(F)c2)C1)C1CCCCC1 (configuration not stated)
Cells [1]
  IC50: > 67.6 µM (inactive)
[2]
  IC50: > 67.6 µM (inactive)

## Fc1ccc(CNc2ccc(N3CCN(Cc4ccccc4)CC3)cc2)cc1
[12]
  IC50: 15.4 µM (active)
[13]
  CC50: 98.7 µM (active)

## O=C(Nc1cccc(-c2nc3ccccc3[nH]2)c1)c1ccc(C(=O)Nc2cccc(-c3nc4ccccc4[nH]3)c2)cc1
Streptokinase A
  EC50: > 150 µM (not active)
Streptococcus
  EC50: 61.9 µM (active)
[9]
  IC50: > 66.6 µM (inactive)
[10]
  IC50: 6.29 µM (active)

## COc1ccc(-c2nc3c(C(=O)NCCN(C)C)cccc3c3ccccc23)cc1
[14]
  EC50: > 91.2 µM (inactive)
[15]
  EC50: > 91.2 µM (inactive)
[16]
  AC50: 2.89 µM (active)

## O=C(C[C@H]1C(=O)N(Cc2ccccc2)C[C@@H]1Cc1ccccc1)Nc1ccc(Br)cc1
Vero
  AC50: 31.4 µM (active)

## Cc1cccc(C(=O)Nc2cccc(NC(=O)c3cccc(C)c3)c2)c1
[17]
  IC50: 0.99 µM (active)

## Cn1ccc(C(=O)N/N=C/c2c[nH]c3ccccc23)n1
[14]
  EC50: > 91.2 µM (inactive)
[15]
  EC50: > 91.2 µM (inactive)
